# Results published in patent publication US20090247636A1, “AGENT FOR SUPPRESSION OF GASTRIC EMPTYING COMPRISING 4-HYDROXYISOLEUCINE” (AJINOMOTO CO., INC.,, priority 2006, published 2009).
# What was measured:
# gastric emptying = assay: Gastric emptying-suppressive action (phenol red test meal); format: in vivo, Sprague Dawley rats; details: 500 mg/kg oral, test meal 1 hour later, stomach isolated after 90 minutes, vs vehicle, p<0.05, FIG. 1
# Procedure: Male Sprague Dawley rats (12 weeks of age, Charles River Laboratories Japan Inc.) (n=5) were used. After fasting for 20 hours, distilled water for injection (5 mL/kg) was orally administered to a vehicle group and 4-hydroxyisoleucine (500 mg/5 mL/kg) was orally administered to a 4-hydroxyisoleucine administration group. One hour later, a test meal (1.5% methylcellulose, 0.05% phenol red, 1.5 ml) was orally administered. After 90 minutes, the stomach was isolated under an ether anesthesia, the gastric contents were recovered and the remaining phenol red was quantified. A control group was prepared. After fasting for 20 hours, a test meal (1.5% methylcellulose, 0.05% phenol red, 1.5 mL) was orally administered. Immediately after administration of the test meal, the stomach was isolated under an ether anesthesia, the gastric contents were recovered and the remaining phenol red was quantified. The gastric emptying was calculated by the following formula.
# Gastric emptying (%)=(1-phenol red amount of each individual/average phenol red amount of control group*)×100*:test meal alone was administered, n=2
# The difference between the 4-hydroxyisoleucine (HIL) administration group and the distilled water for injection (vehicle) administration group was detected according to Student's t test, and p<0.05 was judged as significant.
# food intake = assay: Food intake suppressive action (cumulative feed intake); format: in vivo, Wistar rats; details: 500 mg/kg oral after fasting for 9 hours, vs vehicle, p<0.05, FIG. 2
# Procedure: Male Wistar rats (7 weeks of age, Charles River Laboratories Japan Inc.) (n=5) were used. After fasting for 9 hours, distilled water for injection (5 mL/kg) or 4-hydroxyisoleucine (50, 150, 500 mg/5 mL/kg) was orally administered at 18:00. Immediately thereafter, feeding was started. The cumulative feed intake was measured at 30 min, 1 hr, 3 hr and 16 hr after the administration. […] The difference between the 4-hydroxyisoleucine administration group and the distilled water for injection (vehicle) administration group was detected according to Student's t test, and p<0.05 was judged as significant.
# body weight gain = details: high-fat diet-fed mouse; cited from earlier work
# insulin secretion = details: in vitro; cited from earlier work
# [1] = in vivo; cited from earlier work
smiles,measurement,setting,value
C[C@@H]([C@H](C)O)[C@H](N)C(=O)O [4-hydroxyisoleucine],Gastric emptying (%),gastric emptying,significantly suppressed
same,food intake (cumulative feed intake),food intake,significantly suppressed
same,suppression of body weight gain,body weight gain,does not show such action
same,insulin secretagogue action,insulin secretion,shows an insulin secretagogue action
same,antidiabetic action,[1],an antidiabetic action
